Data reported in the supplement of paper PMC10307832.

Experiments:
Test in all cases: relative viability (nuclei count vs DMSO), 5 days (fraction); higher = more cells survive
CUDC-101 + Dasatinib = compound: C#Cc1cccc(Nc2ncnc3cc(OC)c(OCCCCCCC(=O)NO)cc23)c1 [CUDC-101] + Cc1nc(Nc2ncc(C(=O)Nc3c(C)cccc3Cl)s2)cc(N2CCN(CCO)CC2)n1 [Dasatinib] (partner 0.075 µM)
Method in brief: (§1)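 Lung cancer cell lines in 1536-well plates got either a single drug or a fixed anchor-drug dose together with five library-drug doses (not always all listed) in √10 steps, by pin tool, on the day after seeding. Nuclei were counted after 5 days, and relative viability is the treated-to-vehicle ratio of nuclei counts. Values are medians of duplicate plates.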

NVP-TAE684 + Lapatinib = compound: COc1cc(N2CCC(N3CCN(C)CC3)CC2)ccc1Nc1ncc(Cl)c(Nc2ccccc2S(=O)(=O)C(C)C)n1 [NVP-TAE684] + CS(=O)(=O)CCNCc1ccc(-c2ccc3ncnc(Nc4ccc(OCc5cccc(F)c5)c(Cl)c4)c3c2)o1 [Lapatinib] (partner 2 µM)
Method in brief: as §1

NVP-TAE684 + Olaparib = compound: COc1cc(N2CCC(N3CCN(C)CC3)CC2)ccc1Nc1ncc(Cl)c(Nc2ccccc2S(=O)(=O)C(C)C)n1 [NVP-TAE684] + O=C(c1cc(Cc2n[nH]c(=O)c3ccccc23)ccc1F)N1CCN(C(=O)C2CC2)CC1 [Olaparib] (partner 8 µM)
Method in brief: as §1

Vandetanib + Luminespib = compound: COc1cc2/c(=N/c3ccc(Br)cc3F)nc[nH]c2cc1OCC1CCN(C)CC1 [Vandetanib] + CCNC(=O)c1noc(-c2cc(C(C)C)c(O)cc2O)c1-c1ccc(CN2CCOCC2)cc1 [Luminespib] (partner 0.01 µM)
Method in brief: as §1

Cell Line	relative viability (CUDC-101 + Dasatinib; first compound 0.01 µM)	relative viability (CUDC-101 + Dasatinib; first compound 0.03162 µM)	relative viability (CUDC-101 + Dasatinib; first compound 0.1 µM)	relative viability (CUDC-101 + Dasatinib; first compound 0.3162 µM)	relative viability (CUDC-101 + Dasatinib; first compound 1 µM)	relative viability (NVP-TAE684 + Lapatinib; first compound 0.2 µM)	relative viability (NVP-TAE684 + Lapatinib; first compound 0.6325 µM)	relative viability (NVP-TAE684 + Lapatinib; first compound 2 µM)	relative viability (NVP-TAE684 + Olaparib; first compound 0.2 µM)	relative viability (NVP-TAE684 + Olaparib; first compound 0.6325 µM)	relative viability (NVP-TAE684 + Olaparib; first compound 2 µM)	relative viability (Vandetanib + Luminespib; first compound 0.02 µM)	relative viability (Vandetanib + Luminespib; first compound 0.06325 µM)	relative viability (Vandetanib + Luminespib; first compound 0.2 µM)	relative viability (Vandetanib + Luminespib; first compound 0.6325 µM)	relative viability (Vandetanib + Luminespib; first compound 2 µM)
NCI-H727	0.298	0.422	0.359	0.375	0.311	0.917	0.695	0.346	0.612	0.601	0.679	0.591	0.349	0.247	0.252	0.316
PC-3 [JPC-3]	0.954	0.932	0.753	0.483	0.542	0.472	0.446	0.387	1.32	1.02	–	0.724	0.661	0.639	0.745	0.524
NCI-H1792	0.764	0.683	0.856	0.819	0.691	0.913	0.825	0.89	0.52	0.37	0.248	0.492	0.496	0.355	0.461	0.413
NCI-H1355	0.747	0.672	0.717	0.741	0.523	1.18	0.855	0.636	0.657	0.713	0.499	0.618	0.731	0.838	0.685	0.698
HCC-827	0.317	0.154	0.116	0.135	0.13	0.187	0.203	0.207	0.697	0.585	0.668	0.897	0.589	0.57	0.183	0.147
NCI-H1944	0.215	0.184	0.201	0.196	0.196	–	0.798	0.607	0.373	0.421	0.419	0.811	0.743	0.745	0.676	0.651
NCI-H2405	0.217	0.193	0.228	0.214	0.191	1.26	0.815	0.55	0.923	0.825	0.481	0.736	0.539	0.776	0.642	0.55
NCI-H650	0.486	0.482	0.495	0.436	0.337	–	0.776	0.706	0.423	0.376	0.289	0.843	0.667	–	0.992	0.766
NCI-H838	0.338	–	0.308	0.335	0.358	1.12	0.758	0.287	0.737	0.611	0.252	0.354	0.353	0.145	0.333	0.278
NCI-H520	0.196	0.166	0.192	0.259	0.218	0.761	0.884	0.454	0.327	0.332	0.198	0.206	0.218	0.222	0.253	0.209
NCI-H358	0.157	0.164	0.166	0.16	0.131	0.397	0.328	0.256	0.637	0.579	0.275	0.336	0.471	0.461	0.218	0.239
HOP-62	0.678	0.656	0.692	0.631	0.438	0.882	1	1.08	0.291	0.33	0.811	0.884	0.886	0.909	0.823	0.848
NCI-H2170	0.633	0.512	0.583	0.475	0.363	0.253	0.244	0.247	0.583	0.58	0.518	0.715	0.606	0.689	0.616	0.823
NCI-H1651	0.378	0.335	0.434	0.39	0.384	0.998	0.834	0.563	0.181	0.186	0.173	1.09	1.01	0.171	0.901	0.641
NCI-H460	0.555	0.506	0.524	0.602	0.44	0.903	1.29	0.441	0.537	0.484	0.633	0.0345	0.0344	0.0312	0.0333	0.0336
NCI-H1734	0.502	0.43	0.461	0.536	0.376	1.26	0.983	0.698	0.668	0.665	0.461	0.205	0.204	0.135	0.187	0.229
NCI-H1915	0.301	0.292	0.293	0.292	0.24	1.02	1.01	0.948	0.295	0.281	0.228	0.744	0.808	0.766	0.766	0.733
NCI-H661	0.926	0.926	0.862	0.815	0.386	0.518	0.51	0.493	0.771	0.788	0.625	0.912	0.914	0.869	0.934	0.978
NCI-H2228	0.542	0.543	0.536	0.52	0.4	0.458	0.212	0.321	0.36	0.384	0.109	0.153	0.176	0.116	0.143	0.116
NCI-H1975	0.287	0.373	0.315	0.413	0.331	0.734	0.791	0.318	0.862	0.748	0.288	0.347	0.27	0.224	0.173	0.236
